Test results taken from patent publication EP1350541A1, “Use of dehydroepiandrosterone and an estradiol derivative for preparing a medicament for treating postmenopausal climacteric disorders” (priority 2002, dated 2003).
Like-named read-outs stand apart in the source and are kept apart here.

Columns and labels:
[1] = Stabilisation of the unstable steroids in drug formulations by stabilisers; format: physicochemical
Source text: Eine hinreichende Haltbarkeit der an sich sehr instabilen Steroide in Arzneimittelformulierungen wird insbesondere erreicht, wenn ein Stabilisator vorliegt. […] In einer bevorzugten Ausführungsform des erfindungsgemäßen Arzneimittels wird deshalb das Steroid mit Ascorbinsäure stabilisiert. […] Die Konzentration des Stabilisators Ascorbinsäure ist vom Gehalt des Steroids abhängig. Je nach dessen Gehalt werden bei Weichgelatinekapseln 0,1 % bis 1 % Ascorbinsäure, bezogen auf die Füllmasse, eingesetzt.

bcl-2 = test: Expression of the antiapoptotic gene bcl-2 in the hippocampus of ovariectomised rats; format: in vivo, Ratten; conditions: female ovariectomised rats; vs OVX control (p<0.01); Abbildung 4
[2] = test system: Oxytocin (Nachweis der OT mRNA); test: Induction of the estrogen-dependent oxytocin gene (OT mRNA) in the brain of ovariectomised rats; format: in vivo, Ratten; conditions: brain of female ovariectomised rats; Abbildung 3
Source text: (§1) In Abbildung 3 werden zwei weitere Beispiele für typische Estrogenwirkungen im Gehirn von weiblichen, ovarektomierten Ratten dargestellt. […] (* Bedeutet statistisch signifikant gegenüber der Kontrollgruppe (p<0.01))

[3] = test system: Corticotropin-Releaseinghormon (Nachweis der CRH mRNA); test: Induction of the estrogen-dependent CRH gene (CRH mRNA) in the brain of ovariectomised rats; format: in vivo, Ratten; conditions: brain of female ovariectomised rats; Abbildung 3
Source text: as §1

Uterus = test: Estrogenic effect on the uterus (uterine mass) of ovariectomised rats; format: in vivo, Ratten; conditions: female ovariectomised rats, in contrast to 17β-Estradiol; for estrogene Wirkung auf den Uterus (Zunahme der Uterusmasse): Abbildung 3
[4] = test system: induzierbaren Stickstoffmonoxid-Oxidase (iNOS); test: Inhibition of NO release (iNOS) in the brain of ovariectomised rats; format: in vivo, Ratten; conditions: female ovariectomised rats; compared with 17β-Estradiol; Abbildung 2; significant vs OVX control (p<0.01)
Source text: Eine der typischen Estrogenwirkungen im Gehirn ist die Hemmung der induzierbaren […] (iNOS). […] Die Kontrollgruppe sind ovarektomierte Tiere (OVX), die nur mit dem Lösungsmittel behandelt worden sind. (* Bedeutet statistisch signifikant gegenüber der Kontrollgruppe (p<0.01))

[5] = 100 mg/Tag oral; Arlt et al., New Engl J Med 1999; cited from earlier work
[6] = Clinical study in healthy women: serum testosterone after oral DHEA, with dexamethasone suppression; format: in vivo, Frauen; conditions: single dose of dexamethasone, 100 mg DHEA oral, Abbildung 5
Source text: In Abbildung 5 werden daher Ergebnisse einer klinischen Studie mit gesunden Frauen dargestellt. Zur kurzzeitigen Unterdrückung der körpereigenen Steroidproduktion erhielten die Probandinnen einmalig Dexamethason. […] Damit ist der Nachweis geführt, daß DHEA bei Frauen nach oraler Aufnahme im Körper zu dem sehr wirksamen Androgen Testosteron umgewandelt wird, d.h. DHEA ist bei Frauen ein Prodrug für Testosteron.

| SMILES | stabilisierende Wirkung (Haltbarkeit der Steroide in Arzneimittelformulierungen) [1] | Expression des antiapoptotischen Gens bcl-2 im Hippocampus (bcl-2) | Induktion der estrogenabhängigen Gene für Oxytocin (OT mRNA) [2] | Induktion der estrogenabhängigen Gene für Corticotropin-Releaseinghormon (CRH mRNA) [3] | other results |
| --- | --- | --- | --- | --- | --- |
| CCCCCCCCCCCCCCCC(=O)OC[C@H](O)[C@H]1OC(=O)C(O)=C1O [Ascorbylpalmitat] | deutlich weniger effektiv |  |  |  |  |
| O=C1O[C@H]([C@@H](O)CO)C(O)=C1O [Ascorbinsäure] |  |  |  |  | stabilisierende Wirkung (Haltbarkeit der Steroide in Arzneimittelformulierungen) ([1]; stabiliser added to the steroid formulation): besonders wirksam |
| Cc1cc(C(C)(C)C)c(O)c(C(C)(C)C)c1 [Butylhydroxytoluol] | deutlich weniger effektiv |  |  |  |  |
| C[C@]12CC[C@@H]3c4ccc(O)cc4CC[C@H]3[C@@H]1CC[C@H]2O [17α-Estradiol] |  | im Gegensatz |  |  |  |
| C[C@]12CC[C@@H]3c4ccc(O)cc4CC[C@H]3[C@@H]1CC[C@@H]2O [17β-Estradiol, reference compound] |  | signifikant erhöht | gelingt | gelingt |  |
| COc1ccc(O)c(C(C)(C)C)c1 [Butylhydroxyanisol] | deutlich weniger effektiv |  |  |  |  |
| C[C@]12CCC3=C(CCc4cc(O)ccc43)[C@@H]1CC[C@H]2O [J 811, Estra-1,3,5(10),8-tetraen-3,17α-diol] |  |  | gelingt | gelingt | estrogene Wirkung auf den Uterus (Zunahme der Uterusmasse) (Uterus): nicht nachweisbar; Hemmung der Freisetzung von NO [4]: genauso stark wie bei dem wichtigsten körpereigenen Estrogen, dem 17β-Estradiol |
| C[C@]12CCC3=C(CCc4cc(O)ccc43)[C@@]13C[C@H]3C[C@H]2O [J 861, 14α, 15α-Methylenestra-1,3,5(10),8-tetraen-3,17α-diol] |  | signifikant erhöht | gelingt | gelingt | estrogene Wirkung auf den Uterus (Zunahme der Uterusmasse) (Uterus): nicht nachweisbar; Wirkung auf den Uterus (Uterus; Abbildung 4): keinerlei Wirkung auf den Uterus; Hemmung der Freisetzung von NO [4]: genauso stark wie bei dem wichtigsten körpereigenen Estrogen, dem 17β-Estradiol |
| C[C@]12CC[C@H](O)CC1=CC[C@@H]1[C@@H]2CC[C@]2(C)C(=O)CC[C@@H]12 [DHEA, Dehydroepiandrosteron] |  |  |  |  | unerwünschte Virilisierungserscheinungen [5]: keine unerwünschten Virilisierungserscheinungen; Serum-Testosteronkonzentrationen [6]: auf das Niveau der unbehandelten Kontrollen hebt |
